Assay results: ChEMBL document CHEMBL1130774, “Pyrazoles, 1,2,4-triazoles, and tetrazoles as surrogates for cis-amide bonds in boronate ester thrombin inhibitors” (Bioorg Med Chem Lett, 1998)

Experiments:
Coagulation factor X = Coagulation factor X (Homo sapiens, UniProt P00742); test: Inhibition against human coagulation factor Xa
Prothrombin [1] = biological target: T1, Prothrombin (Homo sapiens, UniProt P00734); test: Inhibition against human thrombin
Coagulation factor VII = biological target: T2, Coagulation factor VII (Homo sapiens, UniProt P08709); test: Inhibition against human Coagulation factor VII
T2 sequence (P08709 whole entry): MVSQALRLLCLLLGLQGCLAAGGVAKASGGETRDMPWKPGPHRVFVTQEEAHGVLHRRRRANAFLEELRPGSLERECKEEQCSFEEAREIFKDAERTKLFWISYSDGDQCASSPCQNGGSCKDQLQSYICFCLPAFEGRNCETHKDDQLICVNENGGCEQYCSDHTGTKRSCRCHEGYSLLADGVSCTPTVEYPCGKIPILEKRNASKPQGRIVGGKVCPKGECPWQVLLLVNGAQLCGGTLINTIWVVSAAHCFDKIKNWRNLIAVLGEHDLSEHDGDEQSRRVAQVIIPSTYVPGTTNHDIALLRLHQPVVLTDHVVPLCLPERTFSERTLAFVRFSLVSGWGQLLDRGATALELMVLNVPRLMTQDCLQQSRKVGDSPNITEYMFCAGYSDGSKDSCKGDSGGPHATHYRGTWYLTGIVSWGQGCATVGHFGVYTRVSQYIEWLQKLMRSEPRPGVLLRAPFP

[2] = Compound was tested for inhibition against tissue factor.
Serine protease 1 = Serine protease 1 (Homo sapiens, UniProt P07477); test: Inhibition of trypsin
[3] = Compound was tested for inhibition against Coagulation factor I
Prothrombin [4] = biological target: T1, Prothrombin; test: Concentration necessary to double the time required for clot formation induced by the addition of 4 NIH u/mL(final concentration) bovine thrombin.; assay type: functional
[5] = (§1) Concentration necessary to double the time required for clot formation induced by the addition of 4 NIH u/mL (final concentration) bovine thrombin.; assay type: functional
Prothrombin [6] = biological target: T1, Prothrombin; test: as §1; assay type: functional

Sequence of Coagulation factor X (P00742 41-179 limits assumed): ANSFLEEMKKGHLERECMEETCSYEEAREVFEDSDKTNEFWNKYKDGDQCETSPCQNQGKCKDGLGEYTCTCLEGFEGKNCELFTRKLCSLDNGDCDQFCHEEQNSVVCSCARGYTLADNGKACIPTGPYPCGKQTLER
Sequence of Coagulation factor X (P00742 235-488 limits assumed): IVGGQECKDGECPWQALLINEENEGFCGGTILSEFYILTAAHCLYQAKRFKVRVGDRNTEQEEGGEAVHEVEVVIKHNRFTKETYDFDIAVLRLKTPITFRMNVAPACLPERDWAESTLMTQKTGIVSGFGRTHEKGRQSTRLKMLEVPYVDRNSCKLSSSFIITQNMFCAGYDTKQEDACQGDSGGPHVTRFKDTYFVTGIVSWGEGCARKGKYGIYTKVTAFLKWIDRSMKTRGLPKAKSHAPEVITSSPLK
Sequence of Serine protease 1 (P07477 whole entry): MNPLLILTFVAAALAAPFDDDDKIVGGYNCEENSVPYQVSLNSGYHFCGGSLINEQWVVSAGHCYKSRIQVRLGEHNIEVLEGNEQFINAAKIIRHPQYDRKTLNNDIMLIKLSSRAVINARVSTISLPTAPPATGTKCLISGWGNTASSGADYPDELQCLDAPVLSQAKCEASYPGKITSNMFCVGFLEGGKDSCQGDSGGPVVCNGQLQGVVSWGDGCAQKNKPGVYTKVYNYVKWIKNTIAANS

SMILES | Ki (Coagulation factor X) | Ki (Prothrombin [1]) | Ki (Coagulation factor VII) | Ki [2] | Ki (Serine protease 1) | Ki [3] | Ki (Prothrombin [4]) | Ki [5] | Ki (Prothrombin [6])
COC(=O)Cc1nc(Cc2ccccc2)n(CC(=O)N[C@@H](CCCCN)B2O[C@@H]3C[C@@H]4C[C@@H](C4(C)C)[C@]3(C)O2)n1 | > 6000 nM | 85 nM | 14000 nM |  |  |  |  |  | 
CC1(C)[C@@H]2C[C@H]3OB([C@H](CCCCN)NC(=O)Cn4ncnc4CCc4ccccc4)O[C@@]3(C)[C@H]1C2 |  | 36 nM |  |  |  |  |  |  | 
CC1(C)[C@@H]2C[C@H]3OB([C@H](CCCCN)NC(=O)Cn4nc(CS(C)(=O)=O)nc4Cc4ccccc4)O[C@@]3(C)[C@H]1C2 | > 6000 nM | 11 nM | 1900 nM | 2700 nM | 2.1 nM |  |  |  | 
CC1(C)[C@@H]2C[C@H]3OB([C@H](CCCCN)NC(=O)Cn4nc(CC#N)nc4Cc4cccc([N+](=O)[O-])c4)O[C@@]3(C)[C@H]1C2 | > 6000 nM | 1.8 nM | > 3000 nM |  | 23 nM | 1900 nM |  |  | 
Cc1nc(Cc2ccccc2)n(CC(=O)N[C@@H](CCCCN)B2O[C@@H]3C[C@@H]4C[C@@H](C4(C)C)[C@]3(C)O2)n1 | > 6000 nM | 8.6 nM | 7160 nM |  |  |  | 6000 nM |  | 
CC1(C)[C@@H]2C[C@H]3OB([C@H](CCCCN)NC(=O)Cn4nc(-c5cccc([N+](=O)[O-])c5)nc4Cc4ccccc4)O[C@@]3(C)[C@H]1C2 | 4200 nM | 85 nM | 2600 nM |  |  |  |  |  | 
CC1(C)[C@@H]2C[C@H]3OB([C@H](CCCCN)NC(=O)Cn4nc(COCc5ccccc5)nc4Cc4ccccc4)O[C@@]3(C)[C@H]1C2 | 1600 nM | 8.7 nM | 1500 nM |  |  |  | 1300 nM |  | 
CC1(C)[C@@H]2C[C@H]3OB([C@H](CCCCN)NC(=O)Cn4nc(CCC(=O)O)nc4Cc4ccccc4)O[C@@]3(C)[C@H]1C2 | > 6000 nM | 230 nM | > 3000 nM | > 10000 nM | 7.1 nM |  |  |  | 
CC1(C)[C@@H]2C[C@H]3OB([C@H](CCCCN)NC(=O)Cn4ncnc4Cc4ccccc4)O[C@@]3(C)[C@H]1C2 |  | 31 nM |  |  |  |  |  | 2500 nM | 
C[S+]([O-])Cc1nc(Cc2ccccc2)n(CC(=O)N[C@@H](CCCCN)B2O[C@@H]3C[C@@H]4C[C@@H](C4(C)C)[C@]3(C)O2)n1 (some centres not stated) | 6000 nM | 47 nM | 2100 nM | 3600 nM | 4.8 nM |  |  |  | 
CC1(C)[C@@H]2C[C@H]3OB([C@H](CCCCN)NC(=O)Cn4nc(CC(=O)O)nc4Cc4ccccc4)O[C@@]3(C)[C@H]1C2 | > 6000 nM | 1700 nM | > 14000 nM |  |  |  |  |  | 
CC1(C)[C@@H]2C[C@H]3OB([C@H](CCCCN)NC(=O)Cn4nc(Cc5nn[nH]n5)nc4Cc4ccccc4)O[C@@]3(C)[C@H]1C2 |  | 350 nM |  |  |  |  |  |  | 
CC1(C)[C@@H]2C[C@H]3OB([C@H](CCCCN)NC(=O)Cn4nnnc4CCc4ccccc4)O[C@@]3(C)[C@H]1C2 |  | 33 nM |  |  |  |  |  |  | 
CC(C)C(=O)NCc1nc(Cc2ccccc2)n(CC(=O)N[C@@H](CCCCN)B2O[C@@H]3C[C@@H]4C[C@@H](C4(C)C)[C@]3(C)O2)n1 | > 6000 nM | 160 nM | > 3000 nM |  | 9.6 nM |  |  |  | 
CC1(C)[C@@H]2C[C@H]3OB([C@H](CCCCN)NC(=O)Cn4nc(CNS(=O)(=O)C(F)(F)F)nc4Cc4ccccc4)O[C@@]3(C)[C@H]1C2 | > 6000 nM | 210 nM | > 3000 nM | 3700 nM | > 1200 nM |  |  |  | 
CC(C)(C)CC(=O)NCc1nc(Cc2ccccc2)n(CC(=O)N[C@@H](CCCCN)B2O[C@@H]3C[C@@H]4C[C@@H](C4(C)C)[C@]3(C)O2)n1 | 4300 nM | 33 nM | > 3000 nM | 1490 nM | 2.7 nM |  |  |  | 

SMILES | Ki (Coagulation factor X) | Ki (Prothrombin [1]) | Ki (Coagulation factor VII) | Ki [2] | Ki (Serine protease 1) | Ki [3] | Ki (Prothrombin [4]) | Ki [5] | Ki (Prothrombin [6])
CC1(C)[C@@H]2C[C@H]3OB([C@H](CCCCN)NC(=O)Cn4nc(CNC=O)nc4Cc4ccccc4)O[C@@]3(C)[C@H]1C2 | > 6000 nM | 33 nM | 2200 nM | 2700 nM | 6.6 nM |  |  |  | 
CC(C)(C)OC(=O)/C=C/c1nc(Cc2ccccc2)n(CC(=O)N[C@@H](CCCCN)B2O[C@@H]3C[C@@H]4C[C@@H](C4(C)C)[C@]3(C)O2)n1 | > 6000 nM | 150 nM | 2700 nM | 2800 nM | 36 nM |  |  |  | 
CC1(C)[C@@H]2C[C@H]3OB([C@H](CCCCN)NC(=O)Cn4ncnc4CCCc4ccccc4)O[C@@]3(C)[C@H]1C2 |  | > 42 nM |  |  |  |  |  |  | 
CCCc1nc(Cc2ccccc2)n(CC(=O)N[C@@H](CCCCN)B2O[C@@H]3C[C@@H]4C[C@@H](C4(C)C)[C@]3(C)O2)n1 | > 6000 nM | 73 nM | 2400 nM |  | 2.3 nM |  |  |  | 
CC1(C)[C@@H]2C[C@H]3OB([C@H](CCCCN)NC(=O)Cn4nc(-c5cccc(N)c5)nc4Cc4ccccc4)O[C@@]3(C)[C@H]1C2 | > 6000 nM | 150 nM | 1400 nM |  | 4.2 nM |  |  |  | 
CC1(C)[C@@H]2C[C@H]3OB([C@H](CCCCN)NC(=O)Cn4nc(CO)nc4Cc4ccccc4)O[C@@]3(C)[C@H]1C2 | > 6000 nM | 84 nM | 7700 nM |  |  |  |  |  | 
CC1(C)[C@@H]2C[C@H]3OB([C@H](CCCCN)NC(=O)Cn4nc(-c5ccccc5)nc4Cc4ccccc4)O[C@@]3(C)[C@H]1C2 |  | 173 nM |  |  |  |  |  |  | 
CC1(C)[C@@H]2C[C@H]3OB([C@H](CCCCN)NC(=O)Cn4nc(Cc5ccccc5)nc4Cc4ccccc4)O[C@@]3(C)[C@H]1C2 | > 6000 nM | 41 nM | 3940 nM |  |  |  |  |  | 
CSCc1nc(Cc2ccccc2)n(CC(=O)N[C@@H](CCCCN)B2O[C@@H]3C[C@@H]4C[C@@H](C4(C)C)[C@]3(C)O2)n1 | > 6000 nM | 65 nM | 2500 nM |  | 1.9 nM |  | 4500 nM |  | 
CC1(C)[C@@H]2C[C@H]3OB([C@H](CCCCN)NC(=O)Cn4nc(CC#N)cc4CCc4ccccc4)O[C@@]3(C)[C@H]1C2 | > 6000 nM | 4.6 nM |  |  | 35 nM | 13000 nM |  |  | 
CC(C)(C)OC(=O)CCc1nc(Cc2ccccc2)n(CC(=O)N[C@@H](CCCCN)B2O[C@@H]3C[C@@H]4C[C@@H](C4(C)C)[C@]3(C)O2)n1 | 760 nM | 5.5 nM | > 3000 nM | 670 nM | 1.4 nM |  |  |  | 
CC1(C)[C@@H]2C[C@H]3OB([C@H](CCCCN)NC(=O)Cn4nc(CC#N)nc4Cc4ccccc4)O[C@@]3(C)[C@H]1C2 | > 6000 nM | 3.5 nM | 4200 nM |  | 5.6 nM |  |  |  | 500 nM
CC1(C)[C@@H]2C[C@H]3OB([C@H](CCCCN)NC(=O)Cn4nc(CC#N)nc4CCc4ccccc4)O[C@@]3(C)[C@H]1C2 | > 6000 nM | 2.6 nM | > 3000 nM |  | 12 nM | 6800 nM |  |  | 
CN(CC(=O)N[C@@H](CCCSC(=N)N)B(O)O)C(=O)CCc1ccccc1 |  | 0.3 nM |  |  |  |  |  |  | 
CC1(C)[C@@H]2C[C@H]3OB([C@H](CCCCN)NC(=O)Cn4nc(CC#N)nc4Cc4ccccc4[N+](=O)[O-])O[C@@]3(C)[C@H]1C2 | 4900 nM | 0.8 nM | 3000 nM |  | 8.4 nM | 2000 nM |  |  | 
